Entries after “also recorded” stand apart in the source; their conditions may differ.
Assays:
[1] = In Vitro Dissolution of norethindrone (NET) microparticles; format: physicochemical; conditions: ethyl acetate alone as solvent; b93: extreme ethyl acetate contents in quench; quench volume varied
[2] = Solubility of risperidone in receiving medium for in vitro dissolution; conditions: 50 mm tris buffer, pH 7.4, aqueous buffer
Text: Real time and accelerated methodologies were used. The equipment consisted of a Hanson research 6-cell USP paddle (Method II) dissolution apparatus interfaced with a spectrophotometer and data station. Receiving media were continuously recirculated from each cell to flow cells inside the spectrophotometer. The absorbance of the receiving media was monitored at 236 nm for quantification of risperidone.
The real time model measured the release rates of microparticles into a receiving medium consisting of 50 mM tris buffer at pH 7.4 at 37° C. […] The amount of risperidone was kept below 20% of saturation to provide infinite sink conditions.

C#C[C@]1(O)CC[C@H]2[C@@H]3CCC4=CC(=O)CC[C@@H]4[C@H]3CC[C@@]21C [NET, norethindrone]
in vitro release rate from microparticles [1]: Higher than normal release rates; also recorded: quicker release; also recorded: varies slightly

Cc1nc2n(c(=O)c1CCN1CCC(c3noc4cc(F)ccc34)CC1)CCCC2 [Risperidone, risperidone]
solubility [2]: ≥ 500 µg/mL
